Data set [1] relates to healthy non-diabetic subject. The data set can be described thus: Insulin delivery through porated skin, finger stick blood glucose. Format: in vivo, human. From the text:
Insulin, like many compounds normally present in the healthy individual, is a polypeptide which must be maintained in individuals, such as diabetics who need exogenous insulin, at both a basal level and be given in a pulsatile bolus fashion in response to meals and the subject's activity levels. Currently this is achieved via subcutaneous injections of fast acting and slow acting formulations. Because of the molecular weight of insulin, typically ˜6000, it is not able to be delivered at clinically useful levels with traditional transdermal or transmucosal methods. However, by opening the micropores through the barrier layers of the skin or mucosa, a clear path is provided allowing the delivery of the insulin into the viable tissues wherein the interstitial fluid present in these tissues will allow diffusion (including osmotically driven) of the insulin to and into the lymph system and capillary bed, delivering clinically useful amounts. A concentrated insulin solution containing 3500 IU/ml of recombinant human insulin purchased from Boehringer-Mannhein Co., was applied in a reservoir to a porated of the subject's skin on the volar forearm covering 4 square cm. The healthy, person, non-diabetic, subject fasted for 14 hours prior to the start of the experiment. Intravenous and finger stick blood samples were drawn periodically prior to and after the delivery phase began and assayed for glucose, insulin and C-peptide.
The use of liposomes, lipid complexes, microspheres including nanospheres, PEGellated compounds (compounds combined with polyethylene glycol) and other microparticles as part of a drug delivery system is well developed for many different specific applications. In particular, when dealing with a compound which is easily broken down by the endogenous components in the body's tissues such as protease, nuclease, or carbohydrase enzymes in the skin, tissues, the macrophages or other cells present in the blood stream or lymph, increases in bio-availability and/or sustained […]. A repeat of this procedure with the addition of ultrasound operating at 44 khz, and 0.2 watts/square cm indicated a more rapid delivery of the insulin as evidenced by the subject's glucose levels which dropped from 109 mg/dl to 78 mg/dl less than 30 minutes after the delivery began. As in the case of example 45, for heparin delivery, a low current iontophoretic system can be coupled with the micropores to facilitate a greater flux rate and provide the ability to modulate this flux rate by varying the current, allowing a delivery on demand type of system to be built. Previous work with insulin has typically shown that relatively high iontophoretic currents are required to overcome the strong barrier properties of the intact stratum corneum. […]

The test system of data set [2] is volar forearm of a healthy volunteer. The data set can be described thus: Heparin delivery through micropores, passive or with iontophoresis, with microscopic examination of the site.
Method: A heparin solution was applied to skin porated to a depth of approximately 100 μm, allowing either passive diffusion or coupled with iontophoresis (about 1 mA/cm^2) that was applied for a sufficient period of time to transport the heparin through the micropores into the underlying tissues. […] An experiment was conducted wherein a site on the volar forearm of a healthy volunteer was prepared by creating a matrix of 36 micropores within a 1 square cm area. A small reservoir containing a sodium heparin solution and the negative electrode for an iontophoretic system was attached to the site. The positive electrode was attached to the subject's skin some distance away using a hydrogel electrode obtained from Iomed, a commercial supplier of iontophoretic systems. The system was run for ten minutes at 0.2 milliamperes per square cm.
The test system of data set [3] is healthy male volunteers. The data set can be described thus: Alprostadil delivery through micropores on the penis shaft with ultrasonic transducer, clinical responses. The note with it: both subjects. Format: in vivo, human. The procedure:
Alprostadil, or PGE1, is a prostaglandin used therapeutically to treat male erectile dysfunction via it's vasodilator behavior. The standard delivery mode for this drug is a direct injection into the base of the penis or via a suppository inserted into the urethra. A set of experiments were conducted with two healthy male volunteers. […] A concentrated solution of alprostadil was placed in a small reservoir patch placed on the poration site, an ultrasonic transducer was then placed on the top of the reservoir and activated and the subject's erectile and other clinical responses were recorded on video tape. Both subjects developed a significant amount of engorgement of the penis, estimated as achieving 70% of more of a full erection at the dose applied. In addition, a malar flush response to the systemic levels of the drug delivered was observed. […] Both the erectile response and the malar flush provide evidence of the delivery of a clinically active amount of the drug, a well know vasodilator.

The conditions of data set [4]: human.
Data set [5] in a line: Morphine delivery through porated volar forearm with positive pressure gradient, venous blood morphine. The note with it: solution on porated volar forearm.
From the text: A solution of morphine is applied to a porated area on the volar forearm of the human subjects. A positive pressure gradient is used to provide a basal delivery rate of the morphine into the body, as determined by assay of venous blood draws at appropriate time intervals for the presence of morphine. […] Upon demand, an additional pressure bolus is applied to result in a spike in the delivery of the morphine. The additional pressure bolus is achieved in one test by use of ultrasound; or in another experiment by the use of a pressure spike.

Results on five compounds are retold here after patent US9579380B2, “Microporation of tissue for delivery of bioactive agents” (priority 1996, dated 2017).

In the case of insulin, in data set [1] (3500 IU/ml solution on 4 square cm porated volar forearm, passive), the “time to depression of glucose levels” value is given as “approximately 4 hours”. In addition, in data set [1] (3500 IU/ml solution on 4 square cm porated volar forearm, passive, fasted 14 hours, from 100 mg/dl at the start, over a ten minute cycle), the “finger stick blood glucose after depression” value was 67 mg/dL. Besides, in data set [1] (with ultrasound at 44 khz and 0.2 watts/square cm), the “time to glucose drop after delivery began” value is reported as “less than 30 minutes”. In addition, the “glucose level after drop” value in data set [1] (with ultrasound at 44 khz and 0.2 watts/square cm, from 109 mg/dl) was 78 mg/dL.

For the compound heparin, the “clotting of red cells in collected ISF” value in data set [2] (36 micropores in 1 square cm, iontophoresis 0.2 milliamperes per square cm for ten minutes) is reported as “no clotting took place”. Also, the “microscopic examination of the site” value in data set [2] (36 micropores in 1 square cm, sodium heparin solution, iontophoresis 0.2 milliamperes per square cm for ten minutes) is listed as “vasodilation of the capillaries”. Besides, the “microscopic examination of the in vivo site” value in data set [2] (skin porated to approximately 100 μm, passive diffusion and iontophoresis (about 1 mA/cm^2)) is “increased capillary dilation and permeability”.

As for `CCCCC[C@H](O)/C=C/[C@H]1[C@H](O)CC(=O)[C@@H]1CCCCCCC(=O)O` [alprostadil, Alprostadil], the “engorgement of the penis, estimated share of a full erection” value in data set [3] (12 to 36 micropores, roughly 100 microns deep, on 1 square cm, concentrated solution plus ultrasonic transducer) is reported as at least 70%. Also, the “malar flush response to systemic levels of the drug” value in data set [3] (over a 30 to 60 minute delivery period) was “profound malar flush”.

`CN(C)c1ccc2nc3ccc(=[N+](C)C)cc-3sc2c1` [methylene blue, Methylene blue]: in data set [4], the “lag time of pulse of indicator molecules on application of sonic energy” value is below 0.1 s and the “shutoff lag of pulse of indicator molecules on turning off sonic energy” value is below 0.1 s. In addition, the “level of dye solution in receiver medium (no visual indication of dye flux)” value in data set [4] (5 min) is recorded as < 0.0015 % (v/v).

Take `CN1CC[C@]23c4c5ccc(O)c4O[C@H]2[C@@H](O)C=C[C@H]3[C@H]1C5` [morphine]: the “basal level of morphine in venous blood” value in data set [5] lay within 3 to 6 ng/mL.
